According to paper PMC10481938, “Discovery of new Schistosoma mansoni aspartyl protease inhibitors by structure-based virtual screening” (Memórias do Instituto Oswaldo Cruz, 2023):

What was measured:
[1] = biological target: recombinant Schistosoma mansoni cathepsin D-like aspartyl protease 1 (SmCD1) (Schistosoma mansoni, UniProt P91802); assay: SmCD1 enzymatic assay (FRET substrate Abz-AIAF/FSRQ-EDDnp); type: biochemical; settings: for inhibition at 10 µM: read-out: Enzymatic activity inhibition (%) SmCD1; for IC50: recombinant SmCD1, pH 3.5, 95% confidence interval in parentheses; for Binding efficiency index (BEI): BEI = pIC50/MW(kDa), from SmCD1 IC50
Chain of recombinant Schistosoma mansoni cathepsin D-like aspartyl protease 1 (SmCD1) (P91802 entry or part of it): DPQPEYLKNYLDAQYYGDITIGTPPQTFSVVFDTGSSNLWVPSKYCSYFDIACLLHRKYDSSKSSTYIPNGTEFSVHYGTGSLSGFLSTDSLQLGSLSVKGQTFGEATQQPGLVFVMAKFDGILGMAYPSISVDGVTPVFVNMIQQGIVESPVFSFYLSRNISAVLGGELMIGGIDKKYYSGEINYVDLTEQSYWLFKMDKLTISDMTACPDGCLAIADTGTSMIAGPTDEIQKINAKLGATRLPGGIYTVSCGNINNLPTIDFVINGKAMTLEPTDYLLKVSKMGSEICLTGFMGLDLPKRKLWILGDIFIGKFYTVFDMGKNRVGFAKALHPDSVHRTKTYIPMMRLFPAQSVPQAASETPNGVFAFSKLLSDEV
Procedure: SmCD1 cloning, expression and purification - Expression of the recombinant enzyme was previously performed by our group[14] by transfection of the vector with recombinant proSmCD1 gene (proSmCD1r) into culture bottles containing human embryonic kidney (HEK293) cells. After an incubation period of three to five days, the culture medium of the HEK293 cells was collected, filtered, and used for the purification of the recombinant protein. A HisTrap FF column in-tandem with a HiLoad 16/60 Superdex column, connected to an Äkta Xpress system were used for the purification of the protein.
(§1) SmCD1 enzymatic assay - Initially, 2.5 μg of SmCD1 was added to a reaction medium containing 50 mM sodium acetate buffer with 50 mM NaCl at pH 3.5. […] After incubation, to start the reaction, 10 μM of the substrate octapeptide fluorescent (FRET) Abz-AIAF/FSRQ-EDDnp (102023-1, GenOne) was added to the medium. The substrate hydrolysis reaction product was continuously detected (λex = 310 nm and λem = 420 nm), using a Flex Station III microplate reader (Molecular Devices), during the initial 10 min of the reaction.
(§2) All enzymatic assays in this work were performed as described above, and repeated at least three times, each condition in triplicate. In tests involving screening of compounds, the percentage of inhibition of enzymatic activity was calculated considering the mean of the negative control as 100% activity.
(§3) Determination of IC 50 values - For IC50 (inhibitor concentration in which the enzymatic activity is reduced by 50%) determination assays, serial dilutions of the inhibitors were performed, ranging from 1 µM to 500 µM. The IC50 values were determined by fitting SmCD1 activity data into the 4-parameter logistic equation.

[2] = test system: adult worm aqueous extract (AWAE) aspartic protease activity; assay: AWAE aspartic protease activity assay; type: biochemical, Schistosoma mansoni; settings: for IC50: aspartic protease activity of adult worm aqueous extract, with 5 µM E-64, 95% confidence interval in parentheses; for Enzymatic activity inhibition (%) AWAE: 10 μM of compound, average of triplicate of single experiment, CV% in parentheses
Procedure: Preparation of adult worm aqueous extract (AWAE) - The extract was prepared from the homogenisation of 1 mL of worms, containing both male and female, in 5 mL of phosphate buffered saline (PBS) + 1% CHAPS, at pH 7.4, using a Turrax disperser. This volume of parasites is roughly equivalent to 20 adult parasites. The homogenate was centrifuged at 20,000 g for 1 hour at 4 °C, and the supernatant stored at -80 °C. An aliquot was used for the protein dosing by the Lowry method (DC^TM protein assay - BIO-RAD).
[…] In tests involving screening of compounds, the percentage of inhibition of enzymatic activity was calculated considering the mean of the negative control as 100% activity.
(§4) AWAE aspartic protease activity assay - For assaying the aspartyl protease activity present in the AWAE, the same protocol described above for SmCD1 was followed, except for 20 µg of total proteins present in AWAE were added instead of the recombinant SmCD1 enzyme. Additionally, 5 µM of E-64, an inhibitor of cysteinyl proteases, was added to prevent enzymes of this class present in the AWAE[15] to also contribute to substrate hydrolysis on the acidic pH of the assay.
as §3

porcine pepsin = biological target: T1, porcine pepsin (Sus scrofa, UniProt P00791); assay: Specificity assay toward porcine pepsin; type: biochemical; settings: for inhibition at 10 µM: 10 μM of compound, average of triplicate of single experiment, CV% in parentheses, read-out: Enzymatic activity inhibition (%) Pepsin; for IC50: porcine pepsin, 95% confidence interval in parentheses
T1 construct: purchased Difco 0151-17 / 215110
T1 sequence (P00791 60-385): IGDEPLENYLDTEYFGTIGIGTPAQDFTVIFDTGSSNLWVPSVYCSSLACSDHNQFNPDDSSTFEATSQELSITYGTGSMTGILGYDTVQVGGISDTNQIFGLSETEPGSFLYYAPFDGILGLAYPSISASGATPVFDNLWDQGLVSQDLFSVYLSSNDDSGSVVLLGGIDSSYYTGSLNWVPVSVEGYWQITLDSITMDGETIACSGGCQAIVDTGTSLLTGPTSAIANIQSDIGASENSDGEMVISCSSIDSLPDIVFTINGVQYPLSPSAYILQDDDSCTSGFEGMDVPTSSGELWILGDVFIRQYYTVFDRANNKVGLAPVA
Procedure: as §1
(§5) Specificity assays toward mammalian proteases - For recombinant BtCD and porcine pepsin, the same protocol described above for SmCD1 was followed, except for 10 μg of BtCD or 5 μg of pepsin were added.
The IC50 values were determined by fitting SmCD1 activity data into the 4-parameter logistic equation.

[3] = test system: aspartic protease activity (porcine pepsin, SmCD1, AWAE); assay: Aspartic protease inhibition screening of 50 putative hits (hit criterion); type: biochemical; settings: 10 µM, SmCD1 or AWAE
Procedure: as §1, §2, §4, §5
The AWAE assay captures the combined activities of all SmAPs present in schistosome adult worms, while excluding the concurrent cysteinyl protease activity, due the addition of the broad-spectrum E-64 inhibitor.

[4] = biological target: T2, bovine cathepsin D (BtCD) (Bos taurus, UniProt P80209); assay: Specificity assay toward bovine cathepsin D (BtCD); type: biochemical
T2 construct: purchased Sigma-Aldrich C3138
T2 sequence (P80209 45-390): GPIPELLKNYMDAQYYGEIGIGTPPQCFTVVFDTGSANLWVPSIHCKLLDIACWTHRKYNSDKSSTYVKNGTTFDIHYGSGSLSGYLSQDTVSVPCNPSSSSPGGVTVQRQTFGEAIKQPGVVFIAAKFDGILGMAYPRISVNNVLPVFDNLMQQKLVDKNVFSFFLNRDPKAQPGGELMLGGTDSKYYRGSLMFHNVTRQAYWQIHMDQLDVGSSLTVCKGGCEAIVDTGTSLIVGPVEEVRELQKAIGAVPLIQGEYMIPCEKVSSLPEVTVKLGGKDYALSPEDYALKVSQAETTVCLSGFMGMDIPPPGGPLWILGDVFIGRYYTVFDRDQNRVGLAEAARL
Procedure: as §1, §5

WSS-1 cells = assay: Cytotoxicity assay on human WSS-1 cells (resazurin); type: cell-based; settings: 48 h
Procedure: Cytotoxicity assays on human WSS-1 cells - The cytotoxicity of compounds 5, 19 and 50 was evaluated against normal epithelial cells derived from human kidney (WSS-1, ATCC™ CRL-2029). Cells were seeded in 96-well plates, at 5x10^4 cells/mL, in DMEM high glucose medium supplemented with 10% foetal bovine serum (FBS). After adherence period of 24 h, at 37 °C and 5% CO2, the cells were treated with compounds at 10 µM or 100 μM concentrations and incubated for 44 h. After this time, resazurin solution was added to cells culture, at a final concentration of 0.01 mg/mL. The cells returned to the incubator for another 4 h to complete 48 h total incubation time.[50]
Fluorescence readings of resorufin (λex = 560 nm, λem = 590 nm) were taken immediately (F0) and 4 hours (F4) after resazurin addition, using Flex Station III. The percentage of viable cells at the end of the experiment, that is, after compounds exposure for 48h, was calculated as follows: […]
<mml:math><mml:mi>V</mml:mi><mml:mi>i</mml:mi><mml:mi>a</mml:mi><mml:mi>b</mml:mi><mml:mi>l</mml:mi><mml:mi>e</mml:mi><mml:mi> </mml:mi><mml:mi>c</mml:mi><mml:mi>e</mml:mi><mml:mi>l</mml:mi><mml:mi>l</mml:mi><mml:mi>s</mml:mi><mml:mo>=</mml:mo><mml:mfrac><mml:mrow><mml:mi>F</mml:mi><mml:mn>4</mml:mn><mml:mo>-</mml:mo><mml:mi>F</mml:mi><mml:mn>0</mml:mn><mml:mi mathvariant="normal"> </mml:mi><mml:mi mathvariant="normal">t</mml:mi><mml:mi mathvariant="normal">r</mml:mi><mml:mi mathvariant="normal">e</mml:mi><mml:mi mathvariant="normal">a</mml:mi><mml:mi mathvariant="normal">t</mml:mi><mml:mi mathvariant="normal">e</mml:mi><mml:mi mathvariant="normal">d</mml:mi></mml:mrow><mml:mrow><mml:mi>F</mml:mi><mml:mn>4</mml:mn><mml:mo>-</mml:mo><mml:mi>F</mml:mi><mml:mn>0</mml:mn><mml:mi mathvariant="normal"> </mml:mi><mml:mi mathvariant="normal">c</mml:mi><mml:mi mathvariant="normal">o</mml:mi><mml:mi mathvariant="normal">n</mml:mi><mml:mi mathvariant="normal">t</mml:mi><mml:mi mathvariant="normal">r</mml:mi><mml:mi mathvariant="normal">o</mml:mi><mml:mi mathvariant="normal">l</mml:mi></mml:mrow></mml:mfrac><mml:mi mathvariant="normal"> </mml:mi><mml:mi mathvariant="normal">x</mml:mi><mml:mi mathvariant="normal"> </mml:mi><mml:mn>100</mml:mn><mml:mi mathvariant="normal"> </mml:mi></mml:math>

adult S. mansoni worms = assay: Schistosoma mansoni adult worms ex vivo motility assay; type: cell-based; settings: 10 µM; for effect on female worms motility: late incubation times (48 or 72 h), female adult worms; for killing of adult worms ex vivo (judged by worm motility): up to 72 h, male and female adult worms
Procedure: Schistosoma mansoni adult worms ex vivo assay - The effect of 10 µM of the test compounds or PZQ (positive control) on adult S. mansoni worms motility for up to 72 h of incubation at 37 °C and 5% CO2 was evaluated by a high content assay previously developed by our group.[50] Image analysis was carried out in a customised pipeline of the open-source Cellprofiler software v. 4.2.1[51] and consisted of quantifying parasites area (Area measurement of MeasureObjectSizeShape module) and its displacement over pairs of consecutive images (false negative rate measurement of MeasureObjectOverlap module). […] The effects of the experimental treatments on parasites motility were estimated from this model by the integrated nested laplace approximation (INLA) method available in INLA package of R (https://www.r-inla.org). The results were expressed as percentual relative motility considering the estimated effect of the negative control group (0.2% DMSO) for each incubation time as 100%.

[5] = up to tested concentration 500 μM

## O=C(CSc1nc2cc([N+](=O)[O-])ccc2[nH]1)Nc1ccc(F)c(F)c1 [Compound 1]
[1]
  inhibition at 10 µM: 0.4%
  IC50: > 500 µM
[2]
  IC50: > 500 µM
Porcine pepsin
  inhibition at 10 µM: 5.6%
  IC50: > 500 µM
[3]
  inhibition of any of the aspartic protease activity (considered active): ≥ 25%

## Cc1cccc(NS(=O)(=O)c2ccc3[nH]c(=O)c(=O)[nH]c3c2)c1 [Compound 5, 2,3-dioxo-N-(m-tolyl)-1,2,3,4-tetrahydroquinoxaline-6-sulfonamide]
[1]
  Binding efficiency index (BEI): 12.3
  inhibition at 10 µM: 24.3%
  IC50: 83.6 µM
[2]
  Enzymatic activity inhibition (%) AWAE: 23.0 (14) %
  IC50: 135 µM
Porcine pepsin
  inhibition at 10 µM: 44.2%
  IC50: 92.6 µM
[4]; highest concentration evaluated, 500 μM (solubility limitation)
  inhibition at 500 µM: ≤ 45%
[4]; inferred from less than 50% inhibition at 500 μM
  IC50: > 500 µM
WSS-1 cells; 10 µM
  cytotoxicity against WSS-1 cells: neither cytotoxic
WSS-1 cells; up to 100 µM
  cytotoxicity against WSS-1 cells: non-toxic
Adult S. mansoni worms
  effect on female worms motility: slight decrease
  killing of adult worms ex vivo (judged by worm motility): nor could kill adult worms
[3]
  inhibition of any of the aspartic protease activity (considered active): ≥ 25%

## Cc1ccc(C(C)(C)C)c(OCCCNCCN)c1 [Compound 12]
[1]
  inhibition at 10 µM: -10.5%
  IC50: > 500 µM
[2]
  Enzymatic activity inhibition (%) AWAE: 32.0 (11) %
  IC50: 315 µM
Porcine pepsin
  inhibition at 10 µM: -3.5%
  IC50: 231 µM
[3]
  inhibition of any of the aspartic protease activity (considered active): ≥ 25%

## Cc1cccc(NC(=O)CSc2ncnc3sc4c(c23)CCC(C)C4)c1 (centres unmarked) [Compound 19, 2-((7-methyl-5,6,7,8-tetrahydrobenzo[4,5]thieno[2,3-d]pyrimidin-4-yl)thio)-N-(m-tolyl)acetamide]
[1]
  Binding efficiency index (BEI): 10.4
  inhibition at 10 µM: -15.3%
  IC50: 102 µM
[2]
  Enzymatic activity inhibition (%) AWAE: 9.20 (12) %
  IC50: > 500 µM
Porcine pepsin
  inhibition at 10 µM: 42.4%
  IC50: 23.1 µM
WSS-1 cells; 10 µM
  cytotoxicity against WSS-1 cells: neither cytotoxic
WSS-1 cells; up to 100 µM
  cytotoxicity against WSS-1 cells: non-toxic
Adult S. mansoni worms
  killing of adult worms ex vivo (judged by worm motility): nor could kill adult worms
[3]
  inhibition of any of the aspartic protease activity (considered active): ≥ 25%

## CCn1c2ccccc2c2cc(NC(=O)CSC3=C(C#N)C(c4ccccc4F)CC(=O)N3)ccc21 (centres unmarked) [Compound 22]
[1]
  inhibition at 10 µM: 1.8%
  IC50: > 500 µM
[2]
  Enzymatic activity inhibition (%) AWAE: 16.0 (15) %
  IC50: > 500 µM
Porcine pepsin
  inhibition at 10 µM: 25.4%
  IC50: 38 µM
[3]
  inhibition of any of the aspartic protease activity (considered active): ≥ 25%

## N=C(Nc1ccccc1)Nc1nc(=O)cc(CSc2nc3ccccc3s2)[nH]1 [Compound 32]
[1]
  inhibition at 10 µM: 12.2%
  IC50: > 500 µM
[2]
  IC50: > 500 µM
Porcine pepsin
  inhibition at 10 µM: 34.7%
  IC50: 72.5 µM
[3]
  inhibition of any of the aspartic protease activity (considered active): ≥ 25%

## Fc1ccc(-c2ccc(CNCCOc3ccccn3)o2)cc1Cl [Compound 50]
[1]
  inhibition at 10 µM: 3.4%
  IC50: > 500 µM
[1]; [5]
  inhibition against SmCD1: not showing significant inhibition
[2]
  Enzymatic activity inhibition (%) AWAE: 34.5 (8) %
  IC50: 77.7 µM
Porcine pepsin
  inhibition at 10 µM: 10.5%
  IC50: > 500 µM
Porcine pepsin; [5]
  inhibition against pepsin: not showing significant inhibition
WSS-1 cells; 10 µM
  cytotoxicity against WSS-1 cells: neither cytotoxic and safe
WSS-1 cells; 100 µM
  decrease of WSS-1 cell viability: more than 90%
Adult S. mansoni worms
  effect on female worms motility: slight decrease
  killing of adult worms ex vivo (judged by worm motility): nor could kill adult worms
[3]
  inhibition of any of the aspartic protease activity (considered active): ≥ 25%

## pepstatin A [reference compound]
[2]
  Enzymatic activity inhibition (%) AWAE: 98.7 (7) %
